# Active and inactive are the calls of the source. The calls are words filed in the database; no cut-off is given here.
# Assays:
# [1] = Cytotoxicity against human NCM460 cells assessed as inhibition of cell growth measured after 48 hrs by MTT assay; type: toxicity, cell-based
# [2] = Disruption of BLM/5'-biotin-labeled duplex forked-DNA interaction incubated for 30 mins by ELISA assay
# [3] = target: T1, RecQ-like DNA helicase BLM (Homo sapiens, UniProt P54132); assay: Inhibition of BLM (unknown origin) assessed as ATP hydrolysis using 5'-biotin-labeled duplex forked-DNA as substrate incubated for 10 mins in presence of ATP by luciferase assay
# [4] = tested on: HCT-116; assay: Cytotoxicity against human HCT-116 cells assessed as inhibition of cell growth measured after 48 hrs by MTT assay; type: functional, cell-based; conditions: HCT-116, 48 h
# [5] = tested on: RKO; assay: Cytotoxicity against human RKO cells assessed as inhibition of cell growth measured after 48 hrs by MTT assay; type: functional, cell-based
# [6] = target: T1, RecQ-like DNA helicase BLM; assay: Displacement of thiazole orange from His-tagged BLM (unknown origin) expressed in Escherichia coli BL21 (DE3) assessed as decrease in fluorescence intensity at 10 uM by fluorescence based analysis
# [7] = target: T1, RecQ-like DNA helicase BLM; assay: Inhibition of His-tagged BLM (unknown origin) expressed in Escherichia coli BL21 (DE3) using 5'-biotin-labeled duplex forked-DNA as substrate incubated for 10 mins followed by substrate addition measured after 30 mins in presence of ATP by electrophoretic mobility shift assay
# [8] = tested on: SW480; assay: Cytotoxicity against human SW480 cells assessed as inhibition of cell growth measured after 48 hrs by MTT assay; type: functional, cell-based; conditions: SW480, 48 h
# [9] = target: T1, RecQ-like DNA helicase BLM; assay: Displacement of thiazole orange from His-tagged BLM (unknown origin) expressed in Escherichia coli BL21 (DE3) assessed as decrease in fluorescence intensity by fluorescence based analysis
# [10] = tested on: HCT-116; assay: Inhibition of cell invasion in human HCT-116 cells incubated for 48 hrs by crystal violet staining based transwell assay; type: functional; conditions: HCT-116, 48 h
# [11] = tested on: SW480; assay: Inhibition of colony formation in human SW480 cells incubated for 10 days by crystal violet staining based assay; type: functional, cell-based; conditions: SW480, 240 h
# [12] = tested on: HCT-116; assay: Induction of DNA damage in human HCT-116 cells assessed as increase in gamma-H2AX level at above 0.3 uM incubated for 48 hrs by Western blotting analysis; type: functional, cell-based
# [13] = tested on: SW480; assay: Induction of DNA damage in human SW480 cells assessed as increase in gamma-H2AX level at above 0.3 uM incubated for 48 hrs by Western blotting analysis; type: functional, cell-based
# [14] = tested on: HCT-116; assay: Inhibition of colony formation in human HCT-116 cells incubated for 10 days by crystal violet staining based assay; type: functional, cell-based; conditions: HCT-116, 240 h
# [15] = tested on: HCT-116; assay: Induction of cell cycle arrest in human HCT-116 cells assessed as accumulation of cells at G2/M phase at 4 uM measured after 48 hrs by propidium iodide staining based high-content screening method; type: functional
# [16] = tested on: HCT-116; assay: Induction of DNA damage in human HCT-116 cells at 3 uM incubated for 48 hrs by DAPI staining based laser scanning confocal microscopic analysis; type: functional, cell-based
# [17] = tested on: SW480; assay: Induction of cell cycle arrest in human SW480 cells assessed as accumulation of cells at G2/M phase at 4 uM measured after 48 hrs by propidium iodide staining based high-content screening method; type: functional
# [18] = tested on: SW480; assay: Induction of apoptosis in human SW480 cells assessed as apoptotic cells at 1 uM measured after 48 hrs by Annexin V-FITC/PI staining based flow cytometry (reference value: 16%); type: functional
# [19] = tested on: HCT-116; assay: Induction of apoptosis in human HCT-116 cells assessed as apoptotic cells at 1 uM measured after 48 hrs by Annexin V-FITC/PI staining based flow cytometry (reference value: 14%); type: functional
# [20] = tested on: SW480; assay: Induction of DNA damage in human SW480 cells at 3 uM incubated for 48 hrs by DAPI staining based laser scanning confocal microscopic analysis; type: functional, cell-based
# [21] = tested on: SW480; assay: Induction of cell cycle arrest in human SW480 cells assessed as accumulation of cells at S phase at 4 uM measured after 48 hrs by propidium iodide staining based high-content screening method; type: functional
# [22] = tested on: HCT-116; assay: Induction of cell cycle arrest in human HCT-116 cells assessed as accumulation of cells at S phase at 4 uM measured after 48 hrs by propidium iodide staining based high-content screening method; type: functional
# [23] = tested on: RKO; assay: Inhibition of colony formation in human RKO cells incubated for 10 days by crystal violet staining based assay; type: functional, cell-based; conditions: 240 h
# [24] = target: T1, RecQ-like DNA helicase BLM; assay: Inhibition of BLM in human HCT-116 cells co-transfected with I-SceI assessed as effect on HRR level by measuring GFP expression at 1 to 3 uM incubated for 48 hrs by propidium iodide staining based high-content imaging analysis; type: cell-based; conditions: dose 1-3 µM
# [25] = tested on: RKO; assay: Induction of cell cycle arrest in human RKO cells assessed as accumulation of cells at G2/M phase at 4 uM measured after 48 hrs by propidium iodide staining based high-content screening method; type: functional
# [26] = tested on: RKO; assay: Induction of DNA damage in human RKO cells at 3 uM incubated for 48 hrs by DAPI staining based laser scanning confocal microscopic analysis; type: functional, cell-based
# [27] = tested on: HCT-116; assay: Antiproliferative activity against wild type human HCT-116 cells assessed as inhibition of cell growth incubated for 48 hrs by propidium iodide staining based high-content imaging analysis; type: functional; conditions: HCT-116, 48 h
# [28] = tested on: RKO; assay: Induction of DNA damage in human RKO cells assessed as increase in gamma-H2AX level at above 0.3 uM incubated for 48 hrs by Western blotting analysis; type: functional, cell-based
# [29] = target: T1, RecQ-like DNA helicase BLM; assay: Inhibition of BLM in human HCT-116 cells co-transfected with DR-GFP and I-SceI plasmid assessed as decease in recruitment of BLM to DSB site at 1 to 2 uM incubated for 48 hrs by qPCR analysis; type: cell-based; conditions: dose 1-2 µM
# T1 sequence (P54132 whole entry): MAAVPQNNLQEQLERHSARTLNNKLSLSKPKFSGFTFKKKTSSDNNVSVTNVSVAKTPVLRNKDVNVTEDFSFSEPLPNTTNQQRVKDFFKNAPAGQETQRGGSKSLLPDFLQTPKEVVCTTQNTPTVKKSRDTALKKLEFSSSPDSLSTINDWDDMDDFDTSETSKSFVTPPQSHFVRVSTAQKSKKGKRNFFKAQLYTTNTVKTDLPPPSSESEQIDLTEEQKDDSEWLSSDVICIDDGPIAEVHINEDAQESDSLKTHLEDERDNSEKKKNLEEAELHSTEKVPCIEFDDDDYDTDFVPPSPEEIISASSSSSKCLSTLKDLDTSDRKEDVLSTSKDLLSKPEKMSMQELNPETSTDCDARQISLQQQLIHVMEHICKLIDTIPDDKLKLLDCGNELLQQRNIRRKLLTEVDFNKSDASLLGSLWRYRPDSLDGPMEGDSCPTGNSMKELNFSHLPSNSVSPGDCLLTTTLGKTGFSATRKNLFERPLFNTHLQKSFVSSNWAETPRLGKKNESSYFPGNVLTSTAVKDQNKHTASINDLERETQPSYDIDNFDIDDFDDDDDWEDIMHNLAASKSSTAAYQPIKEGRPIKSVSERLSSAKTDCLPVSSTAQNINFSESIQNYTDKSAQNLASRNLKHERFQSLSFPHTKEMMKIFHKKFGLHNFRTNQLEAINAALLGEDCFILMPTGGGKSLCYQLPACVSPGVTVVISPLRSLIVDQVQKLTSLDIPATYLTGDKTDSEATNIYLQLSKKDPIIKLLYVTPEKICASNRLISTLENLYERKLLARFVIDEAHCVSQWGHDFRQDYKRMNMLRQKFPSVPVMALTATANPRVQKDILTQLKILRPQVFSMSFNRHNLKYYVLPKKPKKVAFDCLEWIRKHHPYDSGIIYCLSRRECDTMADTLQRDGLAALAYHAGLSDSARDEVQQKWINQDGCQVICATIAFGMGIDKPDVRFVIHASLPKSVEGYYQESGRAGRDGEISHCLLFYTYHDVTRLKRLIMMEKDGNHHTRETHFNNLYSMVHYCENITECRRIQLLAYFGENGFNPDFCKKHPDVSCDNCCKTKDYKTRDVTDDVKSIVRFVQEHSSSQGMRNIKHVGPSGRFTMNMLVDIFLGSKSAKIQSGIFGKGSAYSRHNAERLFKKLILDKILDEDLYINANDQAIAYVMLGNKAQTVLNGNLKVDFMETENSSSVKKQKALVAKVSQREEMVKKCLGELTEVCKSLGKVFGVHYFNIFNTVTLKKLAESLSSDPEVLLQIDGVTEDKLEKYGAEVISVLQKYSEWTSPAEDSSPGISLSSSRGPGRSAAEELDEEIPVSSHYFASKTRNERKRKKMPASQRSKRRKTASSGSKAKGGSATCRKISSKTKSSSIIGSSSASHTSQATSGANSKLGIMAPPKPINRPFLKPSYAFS
smiles,measurement,setting,value
CCN(CC)CCCNc1cc2nc(/C=C/c3ccc(C(C)C)cc3)n(Cc3cccc(Br)c3)c(=O)c2cc1F,IC50 at 48 h,[1],15.3 µM
same,IC50,[2],9.9 µM
same,IC50,[3],> 32 µM
same,IC50,[4],2.9 µM
same,IC50,[5],5.7 µM
same,Activity,[6],inactive
same,IC50,[7],2.3 µM
same,IC50,[8],1.9 µM
CCN(CC)CCCNc1cc2nc(/C=C/c3ccc(C(C)C)cc3)n(Cc3ccc(OC)cc3)c(=O)c2cc1F,Activity,[6],inactive
same,IC50,[7],5 µM
CCCCn1c(/C=C/c2ccc(C(C)C)cc2)nc2cc(NCCCN(CC)CC)c(F)cc2c1=O,Activity,[6],inactive
same,IC50,[7],4.8 µM
CCN(CC)CCCNc1cc2nc(/C=C/c3ccc(C(C)C)cc3)n(CCC#N)c(=O)c2cc1F,IC50,[9],> 10 µM
same,IC50,[7],> 32 µM
CCN(CC)CCCNc1cc2nc(/C=C/c3ccc(C(C)C)cc3)n(CC#N)c(=O)c2cc1F,Activity,[6],inactive
same,IC50,[7],4.3 µM
CCN(CC)CCCNc1cc2nc(/C=C/c3ccc(C(C)C)cc3)n(CCCN(CC)CC)c(=O)c2cc1F,Activity,[6],inactive
same,IC50,[7],> 32 µM
CCN(CC)CCCNc1cc2nc(/C=C/c3ccc(C(C)C)cc3)n(Cc3ccccc3C(F)(F)F)c(=O)c2cc1F,Activity,[6],inactive
same,IC50,[7],5.3 µM
CCN(CC)CCCNc1cc2nc(/C=C/c3ccc(C(C)C)cc3)n(Cc3ccccc3Br)c(=O)c2cc1F,Activity,[6],inactive
same,IC50,[7],2.9 µM
CCN(CC)CCCNc1cc2nc(/C=C/c3ccc(C(C)C)cc3)n(Cc3ccccc3Cl)c(=O)c2cc1F,Activity,[6],inactive
same,IC50,[7],9.7 µM
CCN(CC)CCCNc1cc2nc(/C=C/c3ccc(C(C)C)cc3)n(Cc3ccccc3)c(=O)c2cc1F,IC50,[9],> 10 µM
same,IC50,[7],5.8 µM
C=C(C)Cn1c(/C=C/c2ccc(C(C)C)cc2)nc2cc(NCCCN(CC)CC)c(F)cc2c1=O,Activity,[6],inactive
same,IC50,[7],8 µM
CCN(CC)CCCNc1cc2nc(/C=C/c3ccc(C(C)C)cc3)n(CCN(C)C)c(=O)c2cc1F,IC50 at 48 h,[1],> 25 µM
same,IC50,[2],4.5 µM
same,IC50,[9],> 10 µM
same,IC50,[3],> 32 µM
same,IC50,[4],3 µM
same,IC50,[5],10.6 µM
same,IC50,[7],2.5 µM
same,IC50,[8],10.1 µM
CCCn1c(/C=C/c2ccc(C(C)C)cc2)nc2cc(NCCCN(CC)CC)c(F)cc2c1=O,IC50,[9],> 10 µM
same,IC50,[7],> 32 µM
CCN(CC)CCCNc1cc2nc(/C=C/c3ccc(C(C)C)cc3)n(CCCOC(C)C)c(=O)c2cc1F,IC50,[9],> 10 µM
same,IC50,[7],5.2 µM
CCN(CC)CCCNc1cc2nc(/C=C/c3ccc(C(C)C)cc3)n(CCC(C)C)c(=O)c2cc1F,Activity,[6],inactive
same,IC50,[7],9.1 µM
CCN(CC)CCCNc1cc2nc(/C=C/c3ccc(C(C)C)cc3)n(CCCN3CCOCC3)c(=O)c2cc1F,IC50,[9],> 10 µM
same,IC50,[7],> 32 µM
CCN(CC)CCCNc1cc2nc(/C=C/c3ccc(C(C)C)cc3)n(CCc3ccccc3)c(=O)c2cc1F,IC50,[9],> 10 µM
same,IC50,[7],4 µM
CCN(CC)CCCNc1cc2nc(/C=C/c3ccc(C(C)C)cc3)n(CCCCl)c(=O)c2cc1F,IC50 at 48 h,[1],9.6 µM
same,IC50,[2],4.9 µM
same,IC50,[3],> 32 µM
same,IC50,[4],5.3 µM
same,IC50,[5],12.3 µM
same,Activity,[6],inactive
same,IC50,[7],1.3 µM
same,IC50,[8],3.45 µM
CCN(CC)CCCNc1cc2nc(/C=C/c3ccc(C(C)C)cc3)n(CC3CCOCC3)c(=O)c2cc1F,Activity,[6],inactive
same,IC50,[7],> 32 µM
CCN(CC)CCCNc1cc2nc(/C=C/c3ccc(C(C)C)cc3)n(CC3CC3)c(=O)c2cc1F,Activity,[6],inactive
same,IC50,[7],8.3 µM
CCCCCn1c(/C=C/c2ccc(C(C)C)cc2)nc2cc(NCCCN(CC)CC)c(F)cc2c1=O,Activity,[6],inactive
same,IC50,[7],3.7 µM
CCN(CC)CCCNc1cc2nc(/C=C/c3ccc(C(C)C)cc3)n(CCCl)c(=O)c2cc1F,IC50 at 48 h,[1],15 µM
same,IC50,[2],7.3 µM
same,IC50,[9],> 10 µM
same,IC50,[3],> 32 µM
same,IC50,[4],5.6 µM
same,IC50,[5],5.6 µM
same,IC50,[7],5.1 µM
same,IC50,[8],4.5 µM
CCN(CC)CCCNc1cc2nc(/C=C/c3ccc(C(C)C)cc3)n(CCOC(C)=O)c(=O)c2cc1F,IC50,[9],> 10 µM
same,IC50,[7],> 32 µM
CCN(CC)CCCNc1cc2nc(/C=C/c3ccc(C(C)C)cc3)n(Cc3ccccc3F)c(=O)c2cc1F,Activity,[6],inactive
same,IC50,[7],5.2 µM
CCN(CC)CCCNc1cc2nc(/C=C/c3ccc(C(C)C)cc3)n(CCCO)c(=O)c2cc1F,Activity,[6],inactive
same,IC50,[7],32 µM
CCN(CC)CCCNc1cc2nc(/C=C/c3ccc(C(C)C)cc3)n(Cc3ccc(Br)cc3)c(=O)c2cc1F,IC50,[10],1 µM
same,IC50,[11],0.6 µM
same,IC50 at 48 h,[1],15.6 µM
same,IC50,[2],2.3 µM
same,Activity,[12],Active
same,IC50,[3],> 32 µM
same,Activity,[13],Active
same,IC50,[14],0.6 µM
same,Activity,[15],20%
same,IC50,[4],2.8 µM
same,Activity,[16],Active
same,Activity,[17],19%
same,Activity,[18],68%
same,IC50,[5],5.4 µM
same,Activity,[19],35%
same,Activity,[20],Active
same,Activity,[21],58%
same,Activity,[22],54%
same,IC50,[23],0.7 µM
same,inhibition,[24],Active
same,Activity,[6],inactive
same,IC50,[7],0.8 µM
same,Activity,[25],25%
same,IC50,[8],2.2 µM
same,Activity,[26],Active
same,IC50,[27],1.9 µM
same,Activity,[28],Active
same,inhibition,[29],Active

# Reference: ChEMBL document CHEMBL5331070, “Design, synthesis and evaluation of N3-substituted quinazolinone derivatives as potential Bloom's Syndrome protein (BLM) helicase inhibitor for sensitization treatment of colorectal cancer” (Eur J Med Chem, 2023)
